According to US8134015B2, “Compound inhibiting in vivo phosphorous transport and medicine containing the same” (Kyowa Hakko Kirin Co., Ltd., priority 2003, dated 2012):
pIC50: −log10 of the molar value.

Tests used:
rat NaPi-2b = molecular target: T1, rat NaPi-2b (Rattus norvegicus, UniProt Q9JJ09); test: Sodium-dependent phosphate uptake of Xenopus oocytes which expressed NaPi-2b (32P); format: cell-based; conditions: Xenopus oocytes expressing rat NaPi-2b, 32P radioactive phosphorus; read-out: IC50 (phosphate uptake inhibitory activity)
T1 construct: expressed in transfected cells; host or cells: Xenopus oocytes injected with cRNA
T1 sequence (Q9JJ09 1-695): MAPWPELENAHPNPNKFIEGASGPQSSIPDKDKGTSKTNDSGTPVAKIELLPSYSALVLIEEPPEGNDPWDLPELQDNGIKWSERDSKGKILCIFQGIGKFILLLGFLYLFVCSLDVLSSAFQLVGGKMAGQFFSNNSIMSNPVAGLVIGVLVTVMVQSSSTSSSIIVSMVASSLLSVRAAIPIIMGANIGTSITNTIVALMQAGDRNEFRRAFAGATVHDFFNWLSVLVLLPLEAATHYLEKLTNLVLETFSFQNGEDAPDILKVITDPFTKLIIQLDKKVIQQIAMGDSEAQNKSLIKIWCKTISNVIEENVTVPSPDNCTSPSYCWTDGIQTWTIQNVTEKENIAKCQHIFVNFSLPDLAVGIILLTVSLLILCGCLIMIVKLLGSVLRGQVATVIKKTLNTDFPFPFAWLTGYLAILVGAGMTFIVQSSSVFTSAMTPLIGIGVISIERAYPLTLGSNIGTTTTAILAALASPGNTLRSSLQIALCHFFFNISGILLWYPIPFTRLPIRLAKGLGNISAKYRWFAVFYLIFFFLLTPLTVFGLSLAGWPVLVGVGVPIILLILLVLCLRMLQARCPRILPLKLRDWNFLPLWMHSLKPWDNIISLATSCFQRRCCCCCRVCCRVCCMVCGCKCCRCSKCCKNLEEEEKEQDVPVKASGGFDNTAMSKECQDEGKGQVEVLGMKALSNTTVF
How it was run: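 Percent inhibition at 300 μM and 100 μM comes from the same inhibition curve of 32P uptake. Assay used oocytes expressing rat NaPi-2b after 2 days of culture.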

human NaPi-2a = molecular target: T2, human NaPi-2a (Homo sapiens, UniProt Q06495); test: Sodium-dependent phosphate uptake of Xenopus oocytes which expressed NaPi-2a (32P); format: cell-based; conditions: phosphate uptake, Xenopus oocytes expressing human NaPi-2a; five concentration levels
T2 construct: expressed in transfected cells
T2 sequence (Q06495 1-639): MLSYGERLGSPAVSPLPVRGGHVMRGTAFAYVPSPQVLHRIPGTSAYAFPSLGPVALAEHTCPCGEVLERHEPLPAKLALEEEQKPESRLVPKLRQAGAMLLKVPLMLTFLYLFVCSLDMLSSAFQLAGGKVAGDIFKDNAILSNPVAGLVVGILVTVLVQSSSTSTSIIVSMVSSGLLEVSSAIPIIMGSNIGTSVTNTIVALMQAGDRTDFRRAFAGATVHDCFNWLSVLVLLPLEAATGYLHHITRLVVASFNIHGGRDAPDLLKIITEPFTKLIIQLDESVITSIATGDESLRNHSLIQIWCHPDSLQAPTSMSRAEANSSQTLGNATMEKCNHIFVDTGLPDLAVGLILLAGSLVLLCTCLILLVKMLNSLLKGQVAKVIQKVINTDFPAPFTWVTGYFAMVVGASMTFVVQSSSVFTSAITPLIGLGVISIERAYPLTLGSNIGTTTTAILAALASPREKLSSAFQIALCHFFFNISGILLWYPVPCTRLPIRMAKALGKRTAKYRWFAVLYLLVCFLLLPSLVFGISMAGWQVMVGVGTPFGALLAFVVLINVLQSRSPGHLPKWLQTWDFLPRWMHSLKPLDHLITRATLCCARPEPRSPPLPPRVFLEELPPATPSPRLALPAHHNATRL
Excerpt: Experiment of Sodium-Dependent Phosphate Uptake of Xenopus oocytes which Expressed NaPi-2a
In the test, a group with the addition of choline chloride (Choline Cl) was used as a negative control for nonspecific uptake, and PFA (phosphonoformic acid) was used as a positive control for phosphate transport inhibition.

SMILES	pIC50 (rat NaPi-2b)	pIC50 (human NaPi-2a)
Cc1csc(NC(=O)c2cccc(CN3CCN(c4ncccn4)CC3)c2)c1C(=O)N/N=C/c1ccc(F)cc1 [Compound 828, N-[3-(4-Fluoro-benzylidene-hydrazinocarbonyl)-4-methyl-thiophen-2-yl]-3-(4-pyrimidin-2-yl-piperazin-1-ylmethyl)-benzamide]	5.03	5.00
Cc1csc(NC(=O)c2cccc(CN3CCN(c4ncccn4)CC3)c2)c1C(=O)N/N=C/c1cccc(F)c1 [Compound 829, N-[3-(3-Fluoro-benzylidene-hydrazinocarbonyl)-4-methyl-thiophen-2-yl]-3-(4-pyrimidin-2-yl-piperazin-1-ylmethyl)-benzamide]	5.41	> 5.52
Cc1csc(NC(=O)c2cccc(CN3CCN(c4ncccn4)CC3)c2)c1C(=O)N/N=C/c1ccc(Cl)c(C(F)(F)F)c1 [Compound 830, N-[3-(4-Chloro-3-trifluoromethyl-benzylidene-hydrazinocarbonyl)-4-methyl-thiophen-2-yl]-3-(4-pyrimidin-2-yl-piperazin-1-ylmethyl)-benzamide]	5.32	4.97
COc1ccc(/C=N/NC(=O)c2c(C)csc2NC(=O)c2cccc(CN3CCN(c4ncccn4)CC3)c2)cc1 [Compound 831, N-[3-(4-Methoxy-benzylidene-hydrazinocarbonyl)-4-methyl-thiophen-2-yl]-3-(4-pyrimidin-2-yl-piperazin-1-ylmethyl)-benzamide]	5.41	4.54
Cc1ccc(/C=N/NC(=O)c2c(C)csc2NC(=O)c2cccc(CN3CCC4(CC3)OCCO4)c2)cc1C [Compound 832, N-[3-(3,4-Dimethyl-benzylidene-hydrazinocarbonyl)-4-methyl-thiophen-2-yl]-3-(1,4-dioxa-8-aza-spiro[4,5]dec-8-ylmethyl)-benzamide]	5.30	5.19
Cc1ccc(/C=N/NC(=O)c2c(C)csc2NC(=O)c2cccc(CN3CCC4(CC3)OCCO4)c2)cc1 [Compound 833, 3-(1,4-Dioxa-8-aza-spiro[4,5]dec-8-ylmethyl]-N-[4-methyl-3-(4-methyl-benzylidene-hydrazinocarbonyl)-thiophen-2-yl]-benzamide]	5.10	4.42
Cc1csc(NC(=O)c2cccc(CN3CCC4(CC3)OCCO4)c2)c1C(=O)N/N=C/c1ccc(F)cc1 [Compound 834, 3-(1,4-Dioxa-8-aza-spiro[4,5]dec-8-ylmethyl]-N-[3-(4-fluoro-benzylidene-hydrazinocarbonyl)-4-methyl-thiophen-2-yl]-benzamide]	4.72	4.28
Cc1csc(NC(=O)c2cccc(CN3CCC4(CC3)OCCO4)c2)c1C(=O)N/N=C/c1cccc(F)c1 [Compound 835, 3-(1,4-Dioxa-8-aza-spiro[4,5]dec-8-ylmethyl]-N-[3-(3-fluoro-benzylidene-hydrazinocarbonyl)-4-methyl-thiophen-2-yl]-benzamide]	5.19	4.96
Cc1csc(NC(=O)c2cccc(CN3CCC4(CC3)OCCO4)c2)c1C(=O)N/N=C/c1ccc(Cl)c(C(F)(F)F)c1 [Compound 836, N-[3-(4-Chloro-3-trifluoromethyl-benzylidene-hydrazinocarbonyl)-4-methyl-thiophen-2-yl]-3-(1,4-dioxa-8-aza-spiro[4,5]dec-8-ylmethyl]-benzamide]	6.11	4.99
CCN(CC)CCN(CCN(CC)CC)Cc1cccc(C(=O)Nc2scc(C)c2C(=O)N/N=C/c2ccc(C)c(C)c2)c1 [Compound 838, 3-{[Bis-(2-diethylamino-ethyl)-amino]-methyl}-N-[3-(3,4-dimethyl-benzylidene-hydrazinocarbonyl)-4-methyl-thiophen-2-yl]-benzamide]	> 5.52	4.99
CCN(CC)CCN(CCN(CC)CC)Cc1cccc(C(=O)Nc2scc(C)c2C(=O)N/N=C/c2ccc(C)cc2)c1 [Compound 839, 3-{[Bis-(2-diethylamino-ethyl)-amino]-methyl}-N-[4-methyl-3-(4-methyl-benzylidene-hydrazinocarbonyl)-thiophen-2-yl]-benzamide]	5.30	4.64
CCN(CC)CCN(CCN(CC)CC)Cc1cccc(C(=O)Nc2scc(C)c2C(=O)N/N=C/c2ccc(F)cc2)c1 [Compound 840, 3-{[Bis-(2-diethylamino-ethyl)-amino]-methyl}-N-[3-(4-fluoro-benzylidene-hydrazinocarbonyl)-4-methyl-thiophen-2-yl]-benzamide]	5.16	4.47
CCN(CC)CCN(CCN(CC)CC)Cc1cccc(C(=O)Nc2scc(C)c2C(=O)N/N=C/c2cccc(F)c2)c1 [Compound 841, 3-{[Bis-(2-diethylamino-ethyl)-amino]-methyl}-N-[3-(3-fluoro-benzylidene-hydrazinocarbonyl)-4-methyl-thiophen-2-yl]-benzamide]	> 5.52	4.70
Cc1ccc(/C=N/NC(=O)c2c(NC(=O)c3cccc(CN(CC(C)O)CC(C)O)c3)sc(C)c2C)cc1 (stereo not shown) [Compound 845, 3-{[Bis-(2-hydroxy-propyl)-amino]-methyl}-N-[4,5-dimethyl-3-(4-methyl-benzylidene-hydrazinocarbonyl)-thiophen-2-yl]-benzamide]	> 5.52	> 5.52
Cc1sc(NC(=O)c2cccc(CN(CC(C)O)CC(C)O)c2)c(C(=O)N/N=C/c2ccc(F)cc2)c1C (stereo not shown) [Compound 846, 3-{[Bis-(2-hydroxy-propyl)-amino]-methyl}-N-[3-(4-fluoro-benzylidene-hydrazinocarbonyl)-4,5-dimethyl-thiophen-2-yl]-benzamide]	> 5.52	> 5.52
CCN(CC)CCN(C)Cc1cccc(C(=O)Nc2ccc(N3CCCCC3)cc2C(=O)N/N=C/c2ccc(C)c(C)c2)c1 [Compound 858, 3-{[(2-Diethylamino-ethyl)-methyl-amino]-methyl}-N-[2-(3,4-dimethyl-benzylidene-hydrazinocarbonyl)-4-piperidin-1-ylphenyl]-benzamide]	6.34	> 6.00
CCN(CC)CCN(C)Cc1cccc(C(=O)Nc2ccc(N3CCCCC3)cc2C(=O)N/N=C/c2ccc(C)cc2)c1 [Compound 859, 3-{[(2-Diethylamino-ethyl)-methyl-amino]-methyl}-N-[2-(4-methyl-benzylidene-hydrazinocarbonyl)-4-piperidin-1-yl-phenyl]-benzamide]	6.41	5.80
CCN(CC)CCN(C)Cc1cccc(C(=O)Nc2ccc(N3CCCCC3)cc2C(=O)N/N=C/c2ccc(F)cc2)c1 [Compound 860, 3-{[(2-Diethylamino-ethyl)-methyl-amino]-methyl}-N-[2-(4-fluoro-benzylidene-hydrazinocarbonyl)-4-piperidin-1-yl-phenyl]-benzamide]	6.19	> 6.00
CCN(CC)CCN(C)Cc1cccc(C(=O)Nc2ccc(N3CCCCC3)cc2C(=O)N/N=C/c2cccc(F)c2)c1 [Compound 861, 3-{[(2-Diethylamino-ethyl)-methyl-amino]-methyl}-N-[2-(3-fluoro-benzylidene-hydrazinocarbonyl)-4-piperidin-1-yl-phenyl]-benzamide]	6.28	> 6.00
CCN(CC)CCN(C)Cc1cccc(C(=O)Nc2ccc(N3CCCCC3)cc2C(=O)N/N=C/c2ccc(Cl)c(C(F)(F)F)c2)c1 [Compound 862, N-[2-(4-Chloro-3-trifluoromethyl-benzylidene-hydrazinocarbonyl)-4-piperidin-1-yl-phenyl]-3-{[(2-diethylamino-ethyl)-methyl-amino]-methyl}-benzamide]	6.46	5.78
